Patent publication US9988445B2, “Method of treatment of pain by administration of a CCL17 specific antibody” (The University of Melbourne, priority 2013, dated 2018)
“Also recorded” adds a separate entry of the source.

Legend:
mice [1] = test: GM-CSF given intraplantarly, pain development (Incapacitance Tester); type: in vivo; details: GM-CSF 20 ng i.pl., four hours, vs. saline
Procedure: Mice were treated with a monoclonal antibody (mAb) to CCL17 (300 μg) or with an isotype control mAb (300 μg) at the same time as being given GM-CSF and pain was measured at four hours later.
(§1) An Incapacitance Tester (Dual Weight Averager) is used to automatically and reproducibly assess the analgesic potency by measuring the weight distribution on the two hind paws.
(§2) Weight placed on each hind limb was measured over a 3 second period. 3 separate measurements taken per mouse for each time point then averaged. Results are expressed as injected limb/control limb×100. Thus a value of 100 means that equal weight is being placed on the right and the left limb. A value below 100 means less weight is being placed on the injected limb (left) compared with the control limb (right).

mice [2] = test: CCL17 given intraplantarly, pain development (Incapacitance Tester); type: in vivo; details: CCL17 50 ng i.pl., 6 hours, p<0.05 vs. saline
Procedure: as §1, §2
Pain is identified as a decrease in the ratio of weight distribution between the CCL17-injected and saline-injected paw where a percentage of less than 95 indicates pain development (see Example 1 above). Thus, CCL17 can induce pain.

Molecule: GM-CSF: proinflammatory cytokine GM-CSF
- pain development after i.pl. injection in the footpad (mice [1]): develop pain

B1: CCL17: chemokine (C-C motif)17, also known as thymus- and activation-regulated chemokine (protein, UniProt Q92583 24-94, looked up)
C-C motif chemokine 17: ARGTNVGRECCLEYFKGAIPLRKLKTWYQTSEDCSRDAIVFVTVQGRAICSDPNNKRVKNAVKYLQSLERS
- pain development (ratio of weight distribution between CCL17-injected and saline-injected paw; less than 95 indicates pain) (mice [2]): develop pain; also recorded: induces pain
